Results reported in patent publication US20240139220A1, “TREATMENT OF HPV INFECTION” (priority 2022, published 2024).

Legend:
[1] = Approximate solubility in solvents at 25° C. and 50° C. by visual observation; format: physicochemical
Protocol: The maximum volume of each solvent added was 1 mL. Approximate solubility was determined by visual observation.
Maximum volume of each solvent added was 1 mL. Approximate solubility was determined by visual observation.

[2] = Bulk stability, accelerated storage for one week (HPLC, XRPD); format: physicochemical
Protocol: Bulk stability: Accelerated stability experiments were conducted at 25° C./92% RH and 40° C./75% RH in an open container, 60° C. in a tight container for one week.
Samples were characterized by XRPD and HPLC and inspected for color change.
Accelerated stability experiments were conducted at 25° C./92% RH in an open container, at 40° C./75% RH in an open container, and at 60° C. in a tight container for one week.

[3] = Behavior under compression, grinding simulation and granulation simulation (XRPD); format: physicochemical
Protocol: About 10 mg of Compound I monofumarate Pattern 1 (Example 7) was compressed for 5 minutes at 10 MPa with a hydraulic press. XRPD characterization was performed to investigate the polymorphic behavior under compression.
About 10 mg of Compound I monofumarate Pattern 1 (Example 7) was ground manually with a mortar and pestle for 5 min. Form transformation and degree of crystallinity was evaluated by XRPD.
Water or ethanol was added drop wise to about 10 mg of Compound I monofumarate Pattern 1 (Example 7) until solids were wetted sufficiently. The samples were ground manually with a mortar and pestle for 3 minutes. Samples are dried under ambient condition for 10 min. Form transformation and degree of crystallinity were evaluated by XRPD.

[4] = Solubility in buffers, water and simulated vaginal fluid at 37° C.; format: physicochemical
Outline: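 About 4 mg of Compound I Pattern 1 added to 2 mL medium (salt amounts equivalent to 10 mg anhydrous free base). Media: pH 3.0 citrate, pH 4.5 acetate, pH 6.8 phosphate, water, simulated vaginal fluid pH 4.2, at 37 °C for 0.5 h and 2 h. Solubility judged by observation; pH of clear solutions measured.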

[5] = Hygroscicity by Dynamic Vapor Sorption (DVS) at 25° C.; format: physicochemical
Protocol: Hygroscopicity was investigated by DVS at 25° C., using the following method: […]

[6] = Ex vivo permeation and penetration across porcine vaginal tissue (Franz diffusion cells, IVPT); format: in vitro ADME
Excerpt: FIG. 116 is an in vitro tissue permeation test in vaginal tissue comparing Compound II to ABI-1968. […] Bars B and C show the tissue penetration of a 0.1% Compound II gel in […]. […] This may be a contributing factor to the performance of ABI-1968 in clinical studies. […] This is described in Example 41.
Freshly harvested porcine vaginal tissue was procured from local slaughterhouse in an ice box. The vaginal tissue was cut open to expose the mucosal surface and tissue was cleaned by gentle flow of PBS pH 7.4. The porcine vaginal tissue was cut into circular portions (approximately 2 cm^2) with help of a […] punch.
The circular portion of tissue was sandwiched between two chambers of a Franz diffusion cell with an active diffusion area of 1 cm^2, and the mucosal layer was exposed to the donor chambers. The resistance across porcine vaginal tissue was measured using a wave form generator to ensure the integrity of the tissue segment used for the permeation study. Porcine vaginal tissue with resistance of ≥3 KΩ.cm^2 was used for study. The receiver chamber was filled with 8 ml of 5% solutol PBS 7.4 pH, which was stirred at 600 rpm with a 3 mm magnetic stir bar and the temperature was maintained at 37° C. with a circulating water bath.
The ˜200 mg of gel was filled into tared 1 mL syringe and gel was dispensed to donor chamber. The gel was spread on to mucosal surface with pre weighed applicator. After loading and spreading of the gel onto surface of mucosal surface, the weight of 1 mL syringe and applicator was noted to determine the exact amount of gel loaded into donor chamber.
Time course (2 h, 4 h and 8 h) porcine vaginal permeation studies were performed. After loading gel, 500 μL samples were withdrawn from the receiver compartment at different time intervals and each time an equal volume of fresh receiver media was used to replace withdrawn samples. The sample withdrawn at each time interval were stored immediately in −20° C. until analysis. After 2, 4 and 8 h, the formulation was removed from the donor chamber with help of syringe and cleaned with cotton swab. The tissue was removed and washed gently with wash solution (50% methanol in water) 5 times and alternatively cleaning with cotton swab.
An 8 mm punch of active diffusion area of washed porcine vaginal tissue was removed, weighed and transferred into a tube. This tube was immediately placed into dry ice for ˜15 min. After specified time, tissue was removed and placed in precooled dish. The tissue was minced into smaller pieces on a dish with a precooled surgical blade. The minced tissue was transferred to sample tubes and dish was rinsed with 1 ml of 5% solutol in PBS 7.4 pH and transferred to same tissue sample tube. These tubes were stored in −70° C. until analysis.
The samples stored at −20° C. was removed and thawed at room temperature for 30 min. The drug from receptor fluid was centrifuged at 13000 rpm for 5 min and to 200 μL of supernatant equal volume of extraction solvent was added. These samples were centrifuged at 13000 rpm for 5 min and supernatant was transferred into vials for analysis.
The minced tissue samples stored at −70° C. were removed and thawed at room temperature for ˜90 min. The samples were kept for shaking at room temperature for 4 h in BioShaker. After 4 h, samples were centrifuged at 13000 rpm for 5 min. To 100 μL of supernatant, 400 μL of extraction solvent was added and vortexed for 2 min. […]

[7] = 25° C., 92% RH, open container, one week
[8] = 40° C., 75% RH, open container, one week
[9] = 60° C., tight container, one week
[10] = Simulated vaginal fluid (pH adjusted with 0.2N NaOH)

Structure (SMILES): CCOC(=O)C(C)NP(=O)(COCCn1cnc2c(OC)nc(N)nc21)OCc1ccccc1.O=C(O)C=CC(=O)O (mixture of isomers) [Compound I Monofumarate Pattern 1]
- Solubility ([1]; Acetone, 25° C.): 50 to 100 mg/mL
- Solubility ([1]; Acetone, 50° C.): 125 to 167 mg/mL
- Solubility ([1]; Acetonitrile (ACN), 25° C.): 20 to 25 mg/mL
- Solubility ([1]; Acetonitrile (ACN), 50° C.): 20 to 33 mg/mL
- Solubility ([1]; Dichloromethane (DCM), 25° C.): <2 mg/mL
- Solubility ([1]; Dichloromethane (DCM), 50° C.): <10 mg/mL
- Solubility ([1]; Ethanol (EtOH), 25° C.): >100 mg/mL
- Solubility ([1]; Ethanol (EtOH), 50° C.): 250 to 500 mg/mL
- Solubility ([1]; Ethyl acetate (EA), 25° C.): <2 mg/mL
- Solubility ([1]; Ethyl acetate (EA), 50° C.): <10 mg/mL
- Solubility ([1]; Heptanes, 25° C.): <2 mg/mL
- Solubility ([1]; Heptanes, 50° C.): <10 mg/mL
- Solubility ([1]; Isopropanol (IPA), 25° C.): 50 to 100 mg/mL
- Solubility ([1]; Isopropanol (IPA), 50° C.): 71 to 84 mg/mL
- Solubility ([1]; Isopropyl acetate (IPAc), 25° C.): <2 mg/mL
- Solubility ([1]; Isopropyl acetate (IPAc), 50° C.): <10 mg/mL
- Solubility ([1]; Methanol (MeOH), 25° C.): >100 mg/mL
- Solubility ([1]; Methanol (MeOH), 50° C.): >500 mg/mL
- Solubility ([1]; Methyl ethyl ketone (MEK), 25° C.): 20 to 25 mg/mL
- Solubility ([1]; Methyl ethyl ketone (MEK), 50° C.): 22 to 25 mg/mL
- Solubility ([1]; Methyl t-butyl ether (MTBE), 25° C.): <2 mg/mL
- Solubility ([1]; Methyl t-butyl ether (MTBE), 50° C.): <10 mg/mL
- Solubility ([1]; Tetrahydrofuran (THF), 25° C.): >100 mg/mL
- Solubility ([1]; Tetrahydrofuran (THF), 50° C.): 250 to 500 mg/mL
- Solubility ([1]; Toluene, 25° C.): <2 mg/mL
- Solubility ([1]; Toluene, 50° C.): <10 mg/mL
- Solubility ([1]; Water, 25° C.): 14 to 17 mg/mL
- Solubility ([1]; Water, 50° C.): 22 to 25 mg/mL
- XRPD ([2]; 25° C., 84% RH, open container, 2 days): No change
- HPLC (chemical purity) [2, 7]: 98.2%
- XRPD [2, 7]: No change
- HPLC (chemical purity) [2, 8]: 95.6%
- XRPD [2, 8]: No change
- HPLC (chemical purity) [2, 9]: 95.5%
- XRPD [2, 9]: No change
- HPLC (chemical purity) ([2]; Initial): 98.6%
- Polymorphic behavior under compression (XRPD) ([3]; compressed for 5 minutes at 10 MPa): no form change was observed
- Form transformation and crystallinity after grinding (XRPD) ([3]; ground manually with mortar and pestle for 5 min): no form change was observed; crystallinity slightly decreased
- Form transformation after granulation simulation (XRPD) ([3]; wetted with water or ethanol, ground 3 minutes, dried 10 min): neither in ethanol, nor in water form change was observed
- Solubility 0.5 hrs [4, 10]: >2 mg/mL
- Solubility 2 hrs [4, 10]: >2 mg/mL
- pH at 2 hrs [4, 10]: (5.39)
- Solubility 0.5 hrs ([4]; Water): >2 mg/mL
- Solubility 2 hrs ([4]; Water): >2 mg/mL
- pH at 2 hrs ([4]; Water): (3.11)
- Solubility 0.5 hrs ([4]; pH 3.0 100 mM citrate buffer): >2 mg/mL
- Solubility 2 hrs ([4]; pH 3.0 100 mM citrate buffer): >2 mg/mL
- pH at 2 hrs ([4]; pH 3.0 100 mM citrate buffer): (3.05)
- Solubility 0.5 hrs ([4]; pH 4.5 50 mM acetate buffer): >2 mg/mL
- Solubility 2 hrs ([4]; pH 4.5 50 mM acetate buffer): >2 mg/mL
- pH at 2 hrs ([4]; pH 4.5 50 mM acetate buffer): (4.36)
- Solubility 0.5 hrs ([4]; pH 6.8 50 mM phosphate buffer): >2 mg/mL
- Solubility 2 hrs ([4]; pH 6.8 50 mM phosphate buffer): >2 mg/mL
- pH at 2 hrs ([4]; pH 6.8 50 mM phosphate buffer): (6.49)
- D. (%) Cycle 1 (Desorption) ([5]; 0% RH, 25° C.): 0.49%
- D. (%) Cycle 2 (Desorption) ([5]; 0% RH, 25° C.): 0.09%
- S. (%) Cycle 1 (Sorption) ([5]; 0% RH, 25° C.): 0.49%
- S. (%) Cycle 2 (Sorption) ([5]; 0% RH, 25° C.): 0.09%
- D. (%) Cycle 1 (Desorption) ([5]; 10% RH, 25° C.): 0.62%
- D. (%) Cycle 2 (Desorption) ([5]; 10% RH, 25° C.): 0.15%
- S. (%) Cycle 1 (Sorption) ([5]; 10% RH, 25° C.): 0.56%
- S. (%) Cycle 2 (Sorption) ([5]; 10% RH, 25° C.): 0.18%
- D. (%) Cycle 1 (Desorption) ([5]; 20% RH, 25° C.): 0.71%
- D. (%) Cycle 2 (Desorption) ([5]; 20% RH, 25° C.): 0.35%
- S. (%) Cycle 1 (Sorption) ([5]; 20% RH, 25° C.): 0.66%
- S. (%) Cycle 2 (Sorption) ([5]; 20% RH, 25° C.): 0.27%
- D. (%) Cycle 1 (Desorption) ([5]; 30% RH, 25° C.): 0.81%
- D. (%) Cycle 2 (Desorption) ([5]; 30% RH, 25° C.): 0.47%
- S. (%) Cycle 1 (Sorption) ([5]; 30% RH, 25° C.): 0.76%
- S. (%) Cycle 2 (Sorption) ([5]; 30% RH, 25° C.): 0.37%
- D. (%) Cycle 1 (Desorption) ([5]; 40% RH, 25° C.): 0.93%
- D. (%) Cycle 2 (Desorption) ([5]; 40% RH, 25° C.): 0.56%
- S. (%) Cycle 1 (Sorption) ([5]; 40% RH, 25° C.): 0.86%
- S. (%) Cycle 2 (Sorption) ([5]; 40% RH, 25° C.): 0.47%
- D. (%) Cycle 2 (Desorption) ([5]; 50% RH, 25° C.): 0.67%
- S. (%) Cycle 1 (Sorption) ([5]; 50% RH, 25° C.): 0.71%
- D. (%) Cycle 2 (Desorption) ([5]; 60% RH, 25° C.): 0.85%
- S. (%) Cycle 1 (Sorption) ([5]; 60% RH, 25° C.): 0.85%
- D. (%) Cycle 2 (Desorption) ([5]; 70% RH, 25° C.): 1.04%
- S. (%) Cycle 1 (Sorption) ([5]; 70% RH, 25° C.): 1.02%
- D. (%) Cycle 2 (Desorption) ([5]; 80% RH, 25° C.): 1.30%
- S. (%) Cycle 1 (Sorption) ([5]; 80% RH, 25° C.): 1.27%
- D. (%) Cycle 2 (Desorption) ([5]; 90% RH, 25° C.): 1.84%
- S. (%) Cycle 1 (Sorption) ([5]; 90% RH, 25° C.): 1.78%
- D. (%) Cycle 2 (Desorption) ([5]; 95% RH, 25° C.): 2.89%
- S. (%) Cycle 1 (Sorption) ([5]; 95% RH, 25° C.): 2.89%
- XRPD after DVS test ([5]; cycle 40-0-95-0-40% RH, 25° C.): No form change,
- Water uptake ([5]; up to 95% RH, DVS 25° C.): about 2.9%

Structure (SMILES): CCOC(=O)[C@H](C)NP(=O)(COCCn1cnc2c(OC)nc(N)nc21)OCc1ccccc1.O=C(O)/C=C/C(=O)O (mixture of isomers) [Compound I monofumarate, (±)-(2S)-ethyl-2-((((2-(2-amino-6-methoxy-9H-purin-9-yl)-ethoxy)-methyl)-(benzyloxy)-phosphoryl)-amino)-propionate monofumarate]
- Concentration in vaginal tissue ([6]; 0.1% dose, porcine and human tissues (FIG. 116)): 40 to 85 ng/mL

Structure (SMILES): CCCCCCCCCCCCCCCCCCOCCOP(=O)(O)COCCn1cnc2c(=O)[nH]c(N)nc21 [ABI-1968]
- Concentration in vaginal tissue ([6]; 3% dose (FIG. 116)): < 15 ng/mL
- Tissue penetration ([6]; porcine vaginal tissue, FIG. 116, Compound II 0.1% gel, ABI-1968 1% and 3% formulations): substantially smaller degree
- Tissue concentration ([6]; up to a 3% dose (Bar F and G in FIG. 116)): < 15 ng/mg
